Laboratory results as given in publication PMC10251479, “PROTAC-Induced Glycogen Synthase Kinase 3β Degradation as a Potential Therapeutic Strategy for Alzheimer’s Disease” (ACS Chemical Neuroscience, 2023).

Tests used:
[1] = tested on: SH-SY5Y cells; assay: Neuroprotective effects against CuSO4 in SH-SY5Y cells (MTT); format: cell-based, human; conditions: 24 h, CuSO4 150 μM
Procedure: SH-SY5Y cells were seeded in a 96-well plate at 2 × 10^4 cells/well, incubated for 24 h and then […]
presence of CuSO4 (150 µM) at 37 °C in 5 % CO2. Cells were also treated with compound 1 (1 µM) for 24 h in the presence of lactacystin (5 µM). At the end of the treatment, the cell viability, in terms of mitochondrial metabolic function, was evaluated by the reduction of 3-(4,5-dimethyl-2-thiazolyl)- 2,5-diphenyl-2H-tetrazolium bromide (MTT) to its insoluble formazan. Briefly, the treatment was replaced with MTT in HBSS [0.5 mg/mL] for 2 h at 37°C in 5% CO2. After washing with HBSS, formazan crystals were dissolved in isopropanol. The amount of formazan was measured (570 nm, reference filter 690 nm) using a multilabel plate reader (VICTOR™ X3, PerkinElmer, Waltham, MA, USA).[10] Data are reported as mean ± SEM of three independent experiments. The neurotoxicity was expressed as a percentage of control cells and calculated by the formula: 100 – ((absorbance of treated

[2] = PAMPA-BBB permeation; format: in vitro ADME
Procedure: 11. PAMPA BBB permeation studies.
Prediction of the brain penetration was evaluated using a parallel artificial membrane permeability assay (PAMPA).[12] Ten commercial drugs, PBS at pH 7.4, EtOH, and dodecane were purchased from Sigma- Aldrich, Acros organics, Merck, and Fluka. The porcine polar brain lipid (PBL) was from Avanti Polar Lipids. The donor plate was a 96-well filtrate plate (Multiscreen® IP Sterile Plate PDVF […]
both from Millipore. Filter PDVF membrane units (diameter 30 mm, pore size 0.45 µm) from Symta were used to filter the samples. A 96-well plate UV reader (Biteck Instruments, Synergy H4 Hibrid Reader) was used for the UV measurements.
12 mg of promazine) were dissolved in 1 mL of EtOH. 100 µL of this compound stock solution were taken and 1400 µL of EtOH and 3500 µL of PBS were added to reach 30% of EtOH concentration in the experiment. These solutions were filtered. The acceptor 96-well microplate was filled with 180 µL of PBS/EtOH (70/30). The donor 96-well plate was coated with 4 µL of porcine brain lipid in dodecane (20 mg mL-1) and after 5 min, 180 µL of each compound solution was added. 1 mg of […]
of EtOH and 1.4 mL of PBS, filtered and then added to the donor 96-well plate. Then the donor plate was carefully put on the acceptor plate to form a “sandwich”, which was left undisturbed for 2 h and 45 min at 25 °C. During this time the compounds diffused from the donor plate through the brain lipid membrane into the acceptor plate. After incubation, the donor plate was removed. UV plate reader determined the concentration of compounds and commercial drugs in the acceptor and the donor plates. Every sample was analyzed at three to five wavelengths (between 200 and 500 nm), in 3 wells and in two independent runs. Results are given as the mean and the average of the two runs is reported. Quality control compounds (previously mentioned) of known BBB permeability were included in each experiment to validate the analysis set.

[3] = target: T1, GSK-3β protein (Homo sapiens, UniProt P49841); assay: GSK-3β degradation by Western blotting in SH-SY5Y cells; format: cell-based; parameters: endogenous in cells; host or cells: SH-SY5Y
T1 sequence (P49841 whole entry): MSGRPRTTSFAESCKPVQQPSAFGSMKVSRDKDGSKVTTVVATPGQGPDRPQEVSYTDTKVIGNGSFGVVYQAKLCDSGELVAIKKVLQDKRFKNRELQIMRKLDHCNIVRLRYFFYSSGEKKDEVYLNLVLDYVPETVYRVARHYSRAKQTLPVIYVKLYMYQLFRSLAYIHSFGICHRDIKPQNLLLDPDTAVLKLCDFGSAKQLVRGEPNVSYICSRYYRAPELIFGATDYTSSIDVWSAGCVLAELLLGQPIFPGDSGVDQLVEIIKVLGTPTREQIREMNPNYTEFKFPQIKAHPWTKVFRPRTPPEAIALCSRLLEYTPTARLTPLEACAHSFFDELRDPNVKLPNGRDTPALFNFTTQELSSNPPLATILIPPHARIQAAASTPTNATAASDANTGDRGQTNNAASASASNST
Procedure: Determination of GSK-3β degradation by Western Blotting
At the end of incubation, cells were trypsinized and the cellular pellet was resuspended in complete lysis buffer containing leupeptin (2 µg/mL, Sigma-Aldrich), phenylmethylsulfonyl fluoride (PMSF, 100 µg/mL, Sigma-Aldrich) and a cocktail of protease/phosphatase inhibitors (100×). The protein concentration was determined using the Bradford method (Bio-Rad Laboratories Srl, Hercules, CA, USA). The protein lysates (50 µg per […]
polyacrylamide gels, Bio-Rad Laboratories SrL) and electroblotted onto 0.45 µm nitrocellulose membranes. Membranes were incubated overnight at 4 °C with primary antibody recognizing GSK-3β (1:1000, Cell Signaling Technologies Inc, Danvers, MA, USA). Membranes were then washed with TRIS-buffered saline-T (TBS + 0.05% Tween20), and then incubated with horseradish peroxidase (POD) linked anti-rabbit secondary antibody (1:2000, GE Healthcare, Chicago, IL, USA).
Immunoreactive bands were visualized by enhanced chemiluminescence (ECL, Bio-Rad Laboratories Srl). The same membranes were stripped and reprobed with anti β-actin (1:1000, Sigma-Aldrich). Data were normalized on the β-actin bands and analyzed by densitometry, using the Quantity One software (Bio-Rad Laboratories Srl).[9] […]

[4] = target: T1, GSK-3β protein; assay: GSK-3β inhibition in vitro assay (Kinase-Glo luminescent); format: biochemical; parameters: purchased Millipore (Millipore Iberica S.A.U.); conditions: ATP 1 μM, GSM substrate 25 μM, 30 min at 37 °C; mean of at least two determinations in duplicate; read-out: IC50 ± SEM, GSK-3β activity
Source text: N-(2-(2-(2-((2-(2,6-dioxopiperidin-3-yl)-1,3-dioxoisoindolin-4-yl)amino)ethoxy)ethoxy)ethyl)- 4-((2-(naphthalen-1-yl)-3,5-dioxo-1,2,4-thiadiazolidin-4-yl)methyl)benzamide (4). Synthesized […]
GSK-3β inhibition in vitro assay. Human recombinant GSK-3β, prephosphorylated polypeptide substrate and white 96-well plates were purchased from Millipore (Millipore Iberica S.A.U.). Kinase-Glo Luminescent Kinase Assay was obtained from Promega (Promega Biotech Iberica, SL).
Adenosinetriphosphate (ATP) and all other reagents were from Sigma-Aldrich. Assay buffer contained 50 mM 4-(2-hydroxyethyl)-1- piperazineethanesulfonic acid (HEPES) (pH 7.5), 1 mM ethylenediaminetetraacetic acid (EDTA), 1 mM ethylene glycol tetraacetic acid (EGTA), and 15 mM magnesium acetate. The in solution experiments for GSK-3β inhibition analysis were performed by following the method developed by Baki et al.[1] In a typical assay, 10 μL of test compound (dissolved […]
in DMSO at 1 mM concentration and diluted in advance in assay buffer to the desired concentration) and 10 μL (20 ng) of enzyme were added to each well in presence of 20 μL of assay buffer containing […]
After a 30 min incubation time at 37 °C, the enzymatic reaction was stopped by adding 40 μL of Kinase-Glo reagent. Glow-type luminescence was recorded after 10 min using a Victorx3 (PerkinElmer Waltham, MA, USA) plate […]
inhibitory activities were calculated based on maximal kinase (average positive) and luciferase activities (average negative) measured in the absence of inhibitor and in the presence of reference […]
μM), respectively. The linear regression parameters were determined and the IC 50 extrapolated by GraphPad software (version 5.0; GraphPad Software, La Jolla, CA, USA).

[5] = classified from experimental Pe

SMILES: O=C(Cn1cc(C2=C(c3ccc(Cl)cc3Cl)C(=O)NC2=O)c2ccccc21)NCCCOCCCCOCCCNc1cccc2c1C(=O)N(C1CCC(=O)NC1=O)C2=O (centres unmarked) [Compound 1]
- neurotoxicity induced by CuSO4 ([1]; 1 μM, MTT): significantly counteracted the neurotoxicity induced by CuSO4
- neuroprotective effect against CuSO4 in the presence of lactacystin ([1]; lactacystin 5 μM): abolished by lactacystin
- Papp at 2.75 h ([2]; PAMPA, pH 7.4, PBS:EtOH (70:30), 2 h 45 min at 25 °C, porcine brain lipid, mean ± SD of two independent experiments, read-out: Pe (experimental data)): 15.3 ± 1.12 ×10⁻⁶ cm/s
- BBB permeability classification [2, 5]: CNS±
- Prediction (penetration in the CNS) [2, 5]: CNS +/- (CNS +/- (orange) for 15.78 × 10 −6 cm s−1 > Pe > 11.11 × 10 –6 cm s−1)
- total GSK-3β protein level ([3]; 10 μM, 48 h, Western blotting): significantly decreased the total level of GSK-3β protein
- DC50 ([3]; 48 h, 0.5, 1, 5 and 10 μM, read-out: half-maximal degradation (DC50)): 6.22 µM
- GSK-3β protein level, dose dependence ([3]; 48 h at 0.5, 1, 5 and 10 μM): significantly decreased GSK-3β protein level at all tested concentrations in a dose-dependent manner
- total GSK-3β protein level in the presence of lactacystin ([3]; compound 10 μM, 24 h, lactacystin 5 μM): had no effect on the total GSK-3β protein level
- concentration from which GSK-3β is degraded ([3]; dose-dependent): ≥ 0.5 µM
- IC50 [4]: 0.833 ± 0.062 µM
